These results are taken from patent publication US10329304B2, “Compounds and methods for inhibition of hedgehog signaling and phosphodiesterase” (Vanderbilt University, priority 2014, dated 2019).

Where two headings read alike, the source gives them in different places.

The nature of data set [1]: Lipophilic efficiency (LipE = pEC50 − cLogP) and cLogP. The method in brief:
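pEC50 came from TM3-Gli-Luc Gli-responsive luciferase reporter cells stimulated with 20 nM SAG, with non-specific cytotoxicity monitored in parallel. LipE was calculated by subtracting cLogP from pEC50.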

In another data set the test system is HeLa. Briefly: Cell viability assay (CellTiter-Blue, 72 hr). Format: cell-based, Human. A digest of the protocol:
(§1)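 Cells seeded at 10,000 per well (low density) and exposed to a range of compound concentrations for 72 h. Viability read by CellTiter-Blue, absorbance at 590 nm, relative to DMSO-treated cells.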

The test system of a further data set is DU145. Nature of the data set: Cell viability assay (CellTiter-Blue, 72 hr). It counts as cell-based, Human. A digest of the protocol:
as §1
For orientation: Alamar Blue is a resazurin reagent that responds to reducing activity.

In another data set the test system is SW480. Nature of the data set: Cell viability assay (CellTiter-Blue, 72 hr). The settings on record: SW480; human cancer cells; read-out: CELL KILLING EC50 (μM) Colon SW480. It counts as cell-based, Human. A digest of the protocol:
as §1

In a further data set the test system is Ptch1 transcription. Briefly: Sufu−/− mouse embryonic fibroblasts qRT-PCR. The settings on record: Mus musculus, Fibroblast; read-out: Sufu Null (Ptc) % Inh., 10 μM. Format: cell-based. Background: Real-time PCR tracks product formation cycle by cycle.
A further data set deals with ptch1 expression. Briefly: RT-PCR of ptch1 in NIH3T3 cells stimulated with purmorphamine. Format: cell-based. The following applies: NIH3T3 fibroblasts. Here is the method: NIH3T3 cells were stimulated with 3 μM purmorphamine in the presence of eggmanone or DMSO for 24-hours. Cells were collected and RNA isolated with RNeasy kit (Qiagen, Valencia, Calif.). After subsequent cDNA amplification using Superscript III (Invitrogen, Carlsbad, Calif.), samples were quantified by comparing Q-PCR cycle thresholds (Ct) for gene expression normalized to GAPDH. The following TaqMan probe and primer sets (Applied Biosystems) were used: GAPDH (Mm99999915_g1), and Patch1 (Mm01306905_mi).

The mark [2] stands for this setting: Calculated as pEC50 - cLogP, Molinspiration Cheminformatics.
[3] abbreviates: human cancer cells, read-out: CELL KILLING EC50 (μM) Cervix HeLa.
The mark [4] stands for this setting: DU-145, human cancer cells, read-out: CELL KILLING EC50 (μM) Prostate DU145.

A word on the EC50: it is the concentration needed to bring the measured effect to its halfway point.

Consider `CCCn1c(SCC(=O)c2cccs2)nc2sc3c(c2c1=O)CCCC3` [Formula 9e], for which the LipE in data set [1] (setting [2]) was 1.06; in data set [1] (pEC50 - cLogP, Table 14), 1.06.
Take `C=C(C)Cn1c(SCC(=O)c2ccncc2)nc2sc3c(c2c1=O)CCCC3` [JEH-3-048-1]: the EC50 was found to be 23.6 µM in the data set on HeLa (setting [3]), 100 µM in the data set on DU145 (setting [4]) and 1.87 µM in the data set on SW480.
As to `C=CCn1c(SCC(=O)c2cccs2)nc2sc3c(c2c1=O)CCCC3` [JEH-3-039-3], the inhibition at 10 µM with Ptch1 transcription is 38.1%. The EC50 in the data set on HeLa (setting [3]) came to 36.9 µM; in the data set on DU145 (setting [4]), 71 µM; in the data set with SW480, 3.63 µM.
`C=C(C)Cn1c(SCC(=O)c2ccccc2)nc2sc3c(c2c1=O)CCCC3` [JEH-3-045-1]: in the data set with Ptch1 transcription, the inhibition at 10 µM is 47.6%.
Turning to `C=C(C)Cn1c(SCC(=O)c2nccs2)nc2sc3c(c2c1=O)CCCC3` [JEH-3-069-1], the EC50 stood at 100 µM with HeLa (setting [3]), 47.5 µM with DU145 (setting [4]) and 6.92 µM in the data set with SW480.
On to `C=C(C)Cn1c(SCC(=O)c2cccs2)nc2sc3c(c2c1=O)CCCC3` [Eggmanone, 3-(2-methylallyl)-2-((2-oxo-2-(thiophen-2-yl)ethyl)thio)-5,6,7,8-tetrahydrobenzo[4,5]thieno[2,3-d]pyrimidine-4(3H)-one], for which the “ptch1 expression in response to purmorphamine” value in the data set on ptch1 expression was “significantly inhibited ptch1 expression in response to purmorphamine”.
Regarding `C=C(C)Cn1c(SCC(=O)c2ccccn2)nc2sc3c(c2c1=O)CCCC3` [JEH-3-063], the EC50 in the data set with HeLa (72 h, read-out: EC50 (50% reduction of viable cell count at 72 hours), Human Cervical Adenocarcinoma) was determined as 9.2 µM; with HeLa (setting [3]), 9.18 µM; with DU145 (DU-145, 72 h, read-out: EC50 (50% reduction of viable cell count at 72 hours), DU145, Human Prostate Adenocarcinoma) it was 0.684 µM; in the data set on DU145 (setting [4]), 0.684 µM; in the data set on SW480 it was 8.05 µM.
Regarding `C=C(C)Cn1c(SCC(=O)c2cccs2)nc2sc3c(c2c1=O)CCCC3` [EGM, Eggmanone], the “ptch1 expression in response to purmorphamine” value in the data set on ptch1 expression is on record as “significantly inhibited ptch1 expression in response to purmorphamine”. Further, the inhibition at 10 µM in the data set with Ptch1 transcription amounted to 65.6%. Further, the figures for the EC50 in the data set on HeLa (setting [3]), in the data set with DU145 (setting [4]) and in the data set on SW480 were 12.4 µM, 41.9 µM and 0.534 µM, respectively.
For `C=C(C)Cn1c(SCC(=O)c2ccccc2)nc2sc3c(c2c1=O)CCCC3` [Formula 9g], the LipE is listed as −0.01 in data set [1] (setting [2]) and −0.01 in data set [1] (pEC50 - cLogP, Table 14).
Turning to `O=C(CSc1nc2sc3c(c2c(=O)n1C1CC1)CCCC3)c1cccs1` [JEH-3-039-2], the inhibition at 10 µM in the data set with Ptch1 transcription is 80.4%.
